This is an account of results in EPA's ToxRefDB 2.

Series [1] relates to rat. The following applies: Subchronic oral toxicity in rodents, fischer, Feed, dose end: 13 week, group: systemic.
Series [2] has as its system mouse. The following applies: Subchronic oral toxicity in rodents, b6c3f1, Feed, dose end: 13 week, group: systemic, systemic / in life observation / body weight / body weight + systemic / in life observation / body weight / body weight gain.
Series [3] has as its system rat. The following applies: Developmental neurotoxicity study; sprague dawley; Oral; Gavage/Intubation; dose end: 112 PND; group: cannot be grouped; systemic / organ weight / brain / absolute.
For series [4], the system named is rat. Conditions: Developmental neurotoxicity study, sprague dawley, Oral, Gavage/Intubation, dose end: 90 PND, group: cannot be grouped.
Series [5] deals with rat. Conditions: Subchronic oral toxicity in rodents, fischer, Feed, dose end: 13 week, group: systemic, systemic / clinical chemistry / cholesterol / cholesterol + systemic / clinical chemistry / protein / protein + systemic / clinical ….
Series [6] concerns rat. The following applies: Developmental neurotoxicity study; sprague dawley; Oral; Gavage/Intubation; dose end: 57 PND; group: cannot be grouped; reproductive / offspring survival early / birth index / birth index + systemic / in life observation / body weight / body weight + ….
The subject of series [7] is rat. Conditions: Subchronic oral toxicity in rodents, fischer, Feed, dose end: 13 week, group: systemic. The source holds these as a separate data set.
Series [8] relates to mouse. Conditions: Developmental neurotoxicity study, other, Oral, Gavage/Intubation, dose end: 21 PND, group: cannot be grouped.
Series [9] deals with rat. Conditions: Combined chronic toxicity/carcinogenicity, fischer, Oral, Feed, dose end: 2 year, group: systemic.
Series [10] concerns rat. The following applies: Developmental neurotoxicity study, sprague dawley, Oral, Gavage/Intubation, dose end: 70 PND, group: cannot be grouped.
The subject of series [11] is mouse. The following applies: Subchronic oral toxicity in rodents, b6c3f1, Feed, dose end: 13 week, group: systemic.
Series [12] has as its system dog. Conditions: Chronic toxicity; beagle; Oral; Capsule; dose end: 52 week; group: systemic; systemic / in life observation / body weight / body weight + systemic / in life observation / body weight / body weight gain + systemic / ….
Series [13] concerns rat. Conditions: Subchronic oral toxicity in rodents, wistar, Feed, dose end: 90 day, group: systemic.
Series [14] has as its system dog. Conditions: Chronic toxicity, beagle, Oral, Capsule, dose end: 12 month, group: systemic.
In series [15] the test system is rat. Conditions: Prenatal developmental toxicity study; wistar; Oral; Feed; dose end: 21 GD; group: maternal; systemic / in life observation / food consumption / food consumption + systemic / in life observation / water consumption / water ….
Setting [16] is: systemic / in life observation / body weight / body weight + systemic / in life observation / body weight / body weight gain.
The mark [17] stands for this setting: systemic / in life observation / body weight / body weight + systemic / in life observation / body weight / body weight gain + systemic / in….
[18] abbreviates: systemic / in life observation / body weight / body weight.
[19] abbreviates: systemic / in life observation / body weight / body weight + developmental / offspring survival late / [other] / [other] + systemic / in ….
The mark [20] stands for this setting: systemic / in life observation / body weight / body weight + systemic / in life observation / body weight / body weight gain + systemic / ….
[21] abbreviates: developmental / offspring survival late / [other] / [other] + systemic / in life observation / clinical signs / ataxia + systemic / in life ….
[22] abbreviates: systemic / in life observation / clinical signs / head tilt.
[23] abbreviates: systemic / in life observation / body weight / body weight + systemic / organ weight / liver / absolute.
[24] abbreviates: systemic / in life observation / body weight / body weight + systemic / in life observation / body weight / body weight gain + developmental….
[25] abbreviates: systemic / in life observation / body weight / body weight gain + systemic / in life observation / food consumption / food consumption + ….
The mark [26] stands for this setting: systemic / in life observation / clinical signs / abnormal gait + systemic / in life observation / clinical signs / ataxia + systemic / in ….
[27] abbreviates: systemic / in life observation / clinical signs / abnormal gait + systemic / in life observation / clinical signs / convulsions.

Structures are written as SMILES.

On to `O=C1NC(=O)C(c2ccccc2)(c2ccccc2)N1` [5,5-Diphenylhydantoin], for which the LEL in the series on rat [1] (setting [16]) came to 122 mg/kg/day; in the series with mouse [2] it was 20.5 mg/kg/day; in the series on rat [3], 100 mg/kg/day; in the series with rat [4] (setting [18]), 100 mg/kg/day; in the series on rat [5], 50 mg/kg/day; with rat [6] it was 200 mg/kg/day. Also, the LEL amounted to 122 mg/kg/day in the series with rat [7] (setting [16]); 10 mg/kg/day in the series on mouse [8] (setting [22]); 25 mg/kg/day with rat [9] (setting [23]); 200 mg/kg/day with rat [10] (setting [24]); 11.2 mg/kg/day in the series on mouse [11] (setting [16]). Moreover, the LOAEL (commonly the lowest tested level that showed an adverse finding) with rat [1] (setting [16]) was 122 mg/kg/day; in the series on mouse [2], 20.5 mg/kg/day; in the series with rat [3], over 100 mg/kg/day; in the series on rat [4] (setting [19]) it was over 200 mg/kg/day; in the series with rat [5], over 100 mg/kg/day; in the series with rat [6], over 200 mg/kg/day. In addition, the LOAEL with rat [7] (setting [20]) is 234 mg/kg/day; in the series on mouse [8] (setting [21]), over 35 mg/kg/day; in the series on rat [9] (setting [23]), over 25 mg/kg/day; in the series with rat [10] (setting [24]), over 200 mg/kg/day; with mouse [11] (setting [20]) it was 90 mg/kg/day. Besides, the NEL is 60.7 mg/kg/day in the series with rat [1] (setting [17]); under 20.5 mg/kg/day in the series on mouse [2]; 50 mg/kg/day with rat [3]; under 100 mg/kg/day with rat [4] (setting [18]); 25 mg/kg/day with rat [5]; under 200 mg/kg/day in the series with rat [6]. Also, the NEL is 60.7 mg/kg/day in the series on rat [7] (setting [20]); under 10 mg/kg/day in the series with mouse [8] (setting [22]); 12.5 mg/kg/day in the series on rat [9] (setting [18]); 150 mg/kg/day in the series on rat [10] (setting [16]); under 11.2 mg/kg/day with mouse [11] (setting [16]). The NOAEL – broadly, the highest dose or exposure tested at which no adverse effect was seen – in the series on rat [1] (setting [17]) was 60.7 mg/kg/day; in the series with mouse [2] it was under 20.5 mg/kg/day; with rat [3] it was at least 100 mg/kg/day; in the series on rat [4] (setting [19]), at least 200 mg/kg/day; in the series with rat [5] it was at least 100 mg/kg/day; in the series with rat [6], at least 200 mg/kg/day. The NOAEL in the series with rat [7] (setting [20]) was 122 mg/kg/day; with mouse [8] (setting [21]) it was at least 35 mg/kg/day; with rat [9] (setting [23]) it was at least 25 mg/kg/day; in the series on rat [10] (setting [24]) it was at least 200 mg/kg/day; with mouse [11] (systemic / pathology microscopic / liver / hypertrophy + systemic / in life observation / mortality / mortality) it was 45 mg/kg/day.
As for `CC(C)[C@@H](Nc1ccc(C(F)(F)F)cc1Cl)C(=O)OC(C#N)c1cccc(Oc2ccccc2)c1` (stereo not given in full) [tau-Fluvalinate], in the series with dog [12], the LEL is 12 mg/kg/day, the LOAEL turned out to be 12 mg/kg/day, the NEL stood at 3 mg/kg/day and the no observed adverse effect level (NOAEL) stood at 3 mg/kg/day.
As for `CC1(C)[C@H](/C=C(\Cl)C(F)(F)F)[C@@H]1C(=O)O[C@@H](C#N)c1cccc(Oc2ccccc2)c1` [lambda-Cyhalothrin], the LEL with rat [13] (systemic / clinical chemistry / aminopyrine-n-demethylase / aminopyrine-n-demethylase + systemic / organ weight / liver / absolute) is 2.5 mg/kg/day; in the series with dog [14] (setting [27]), 0.5 mg/kg/day. Also, the LOAEL was found to be 12.5 mg/kg/day in the series on rat [13] (setting [25]) and 0.5 mg/kg/day in the series on dog [14] (setting [27]). In addition, the NEL with rat [13] (setting [25]) is 0.5 mg/kg/day; with dog [14] (setting [26]) it was 0.1 mg/kg/day. In addition, the results for the NOAEL with rat [13] (setting [25]) and with dog [14] (setting [26]) were 2.5 mg/kg/day and 0.1 mg/kg/day, respectively.
Consider `OC[C@H]1O[C@@H]2O[C@H]3[C@H](O)[C@@H](O)[C@@H](O[C@H]4[C@H](O)[C@@H](O)[C@@H](O[C@H]5[C@H](O)[C@@H](O)[C@@H](O[C@H]6[C@H](O)[C@@H](O)[C@@H](O[C@H]7[C@H](O)[C@@H](O)[C@@H](O[C@H]1[C@H](O)[C@H]2O)O[C@@H]7CO)O[C@@H]6CO)O[C@@H]5CO)O[C@@H]4CO)O[C@@H]3CO` [alpha-Cyclodextrin], for which, in the series with rat [15], the LEL came out at 13.2 mg/kg/day, the lowest-observed-adverse-effect level (LOAEL) was over 13.2 mg/kg/day, the NEL worked out at 6.5 mg/kg/day and the NOAEL was at least 13.2 mg/kg/day.
